Data from ChEMBL document CHEMBL3351419, “Orally bioavailable 6-chloro-7-methoxy-4(1H)-quinolones efficacious against multiple stages of Plasmodium” (J Med Chem, 2014).
In brackets after ≈: the same amount, converted by molar mass.

Columns and labels:
Plasmodium berghei [1] = test: Antimalarial activity against Plasmodium berghei ANKA expressing GFP infected in Balb/c mouse assessed as inhibition of parasitemia at 10 mg/kg, po qd administered as single dose on day 3 to 5 of exposure measured on day 6 post exposure by in vivo thomson test relative to control; assay type: functional
Plasmodium falciparum [2] = test: Antimalarial activity against multi-drug-resistant Plasmodium falciparum W2 infected in human type A+ erythrocytes assessed as growth inhibition after 72 hrs by SYBR Green I assay; assay type: functional, organism-based; details: W2, 72 h
Plasmodium falciparum [3] = test: Antimalarial activity against multi-drug-resistant Plasmodium falciparum TM90-C2B infected in human type A+ erythrocytes assessed as growth inhibition after 72 hrs by SYBR Green I assay; assay type: functional, organism-based
[4] = Resistance index, ratio of EC50 for multi-drug-resistant Plasmodium falciparum TM90-C2B infected in human type A+ erythrocytes to EC50 for multi-drug-resistant Plasmodium falciparum W2 infected in human type A+ erythrocytes; assay type: functional
Plasmodium berghei [5] = test: Antimalarial activity against Plasmodium berghei ANKA expressing GFP infected in Balb/c mouse assessed as inhibition of parasitemia at 50 mg/kg, po qd administered as single dose on day 3 to 5 of exposure measured on day 6 post exposure by in vivo thomson test relative to control; assay type: functional
Plasmodium berghei [6] = test: animal or person; details: ANKA, in Mus musculus, read-out: INH
J774 = test: Cytotoxicity against mouse J774 cells after 72 hrs by CellTiter 96 assay; assay type: cell-based; details: J774, 72 h
Plasmodium berghei [7] = test: Antimalarial activity against Plasmodium berghei ANKA expressing GFP infected in Balb/c mouse assessed as mouse survival at 50 mg/kg, po qd administered as single dose on day 3 to 5 of exposure measured on day 6 post exposure by in vivo thomson test relative to control; assay type: functional
Plasmodium berghei [8] = test: Antimalarial activity against Plasmodium berghei ANKA expressing GFP infected in Balb/c mouse assessed as mouse survival at 10 mg/kg, po qd administered as single dose on day 3 to 5 of exposure measured on day 6 post exposure by in vivo thomson test relative to control; assay type: functional
[9] = Cytotoxicity index, ratio of EC50 for mouse J774 cells to EC50 for multi-drug-resistant Plasmodium falciparum TM90-C2B infected in human type A+ erythrocytes; assay type: toxicity, cell-based; details: read-out: Ratio EC50
Plasmodium berghei [10] = test: animal or person; details: ANKA, in Mus musculus, read-out: INH; remark: listed apart in the source
Plasmodium berghei [11] = test: Antimalarial activity against Plasmodium berghei ANKA expressing GFP infected in Balb/c mouse assessed as mouse cured from disease at 50 mg/kg, po qd administered as single dose on day 3 to 5 of exposure measured on day 30 post exposure by in vivo thomson test relative to control; assay type: functional
Plasmodium berghei [12] = test: Antimalarial activity against Plasmodium berghei ANKA expressing GFP infected in Balb/c mouse assessed as mouse cured from disease at 10 mg/kg, po qd administered as single dose on day 3 to 5 of exposure measured on day 30 post exposure by in vivo thomson test relative to control; assay type: functional
[13] = octanol/water, pH 7.4
[14] = Aqueous solubility of the compound at pH 7.4; assay type: physicochemical; details: buffer
Liver microsome = test: Half life in human liver microsomes at 1 uM by LC-MS analysis; assay type: ADME

Row | SMILES | inhibition in vivo at 10 mg/kg (Plasmodium berghei [1]) | EC50 (Plasmodium falciparum [2]) | EC50 (Plasmodium falciparum [3]) | Ratio EC50 [4] | inhibition in vivo at 50 mg/kg (Plasmodium berghei [5]) | inhibition in vivo at 50 mg/kg (Plasmodium berghei [6]) | EC50 (J774) | mouse survival time at 50 mg/kg (Plasmodium berghei [7]) | survival time at 10 mg/kg (Plasmodium berghei [8]) | selectivity ratio [9] | inhibition in vivo at 50 mg/kg (Plasmodium berghei [10]) | Activity (Plasmodium berghei [11]) | Activity (Plasmodium berghei [12]) | logD [13] | solubility kinetic [14] | t1/2 (Liver microsome)
1 | COc1cc2[nH]c(C)c(-c3ccccc3C)c(=O)c2cc1Cl | 17% | 5.83 nM | 4.03 nM | 0.69 | 41% | 9% | > 31900 nM | 0 days | 0 days | > 7910 |  |  |  |  |  | 
2 | COc1cc2[nH]c(C)c(-c3ccc(N(C)C)nc3)c(=O)c2cc1Cl | < 1% | 748 nM | 91.1 nM | 0.12 | 22% |  | > 29100 nM | 0 days | 0 days | > 319 |  |  |  |  |  | 
3 | COc1cc2[nH]c(C)c(-c3ccc(N4CCN(C)CC4)nc3)c(=O)c2cc1Cl |  | 1580 nM | 536 nM | 0.34 |  | 0% | > 25100 nM |  |  | > 46.8 | 0% |  |  |  |  | 
4 | COc1cc2[nH]c(C)c(-c3ccco3)c(=O)c2cc1Cl | < 1% | 34.2 nM | 8.43 nM | 0.25 | < 1% |  | > 34500 nM | 0 days | 0 days | > 4100 |  |  |  |  |  | 
5 | COc1ccc(-c2c(C)[nH]c3cc(OC)c(Cl)cc3c2=O)cc1 |  | 54 nM | 11.3 nM | 0.21 |  | 53.6% | > 30300 nM |  |  | > 2690 | 26.9% |  |  |  |  | 
6 | COc1cc2[nH]c(C)c(-c3ccc(OC(C)C)cc3)c(=O)c2cc1Cl |  | 58.4 nM | 12.6 nM | 0.22 |  | 41.4% | > 27900 nM |  |  | > 2220 | 26.8% |  |  |  |  | 
7 | COc1cc2[nH]c(C)c(-c3ccc(CO)cc3)c(=O)c2cc1Cl | < 1% | 154 nM | 93.9 nM | 0.61 | < 1% |  | > 30300 nM | 0 days | 0 days | > 323 |  |  |  |  |  | 
8 | COc1cc2[nH]c(C)c(-c3ccc(-c4ccccc4)cc3)c(=O)c2cc1Cl | 80% | 1.78 nM | 4.33 nM | 2.43 | 79% | 85.7% | > 26600 nM | 0 days | 0 days | > 6140 | 61% |  |  |  |  | 
9 | COc1cc2[nH]c(C)c(-c3ccc(Oc4ccccc4)cc3)c(=O)c2cc1Cl | 87% | 2.4 nM | 1.31 nM | 0.55 | 70% | 83.9% | > 25500 nM | 4 days | 4 days | > 19500 | 69% | 0% | 0% |  |  | 
10 | COc1cc2[nH]c(C)c(-c3ccc(F)cc3)c(=O)c2cc1Cl | 63% | 20.8 nM | 35.8 nM | 1.72 | 30% |  | > 31500 nM | 1 days | 1 days | > 879 |  | 0% | 0% |  |  | 
11 | COc1cc2[nH]c(C)c(-c3ccc(F)cc3F)c(=O)c2cc1Cl |  | 26.3 nM | 44.6 nM | 1.7 |  | 44.3% | > 29800 nM |  |  | > 668 | 29.1% |  |  |  |  | 
12 | COc1cc2[nH]c(C)c(-c3ccc(C(F)(F)F)cc3)c(=O)c2cc1Cl | 92% | 6.25 nM | 5.98 nM | 0.96 | 97% |  | > 27200 nM | 4 days | 3 days | > 4550 |  | 0% | 0% |  |  | 
13 | COc1cc2[nH]c(C)c(-c3ccc(OC(F)(F)F)cc3)c(=O)c2cc1Cl |  | 7.72 nM | 7.76 nM | 1.01 |  | 60% | > 26100 nM |  |  | > 3360 | 28.8% |  |  |  |  | 
14 | COc1cc2[nH]c(C)c(-c3ccc(F)cc3C)c(=O)c2cc1Cl |  | 7.52 nM | 8.07 nM | 1.07 |  |  | 13600 nM |  |  | 1690 |  |  |  | 2.7 | < 2 µM | 1.93 h
15 | COc1cc2[nH]c(C)c(-c3ccc(Oc4ccc(OC(F)(F)F)cc4)cc3C)c(=O)c2cc1Cl | 99% | 0.312 nM | 0.646 nM | 2.07 | 98% |  | > 20400 nM |  | 23 days | > 31600 |  |  | 100% | 2.1 | < 2 µM | 
16 | COc1cc2[nH]c(C)c(-c3ccc(COc4ccc(OC(F)(F)F)cc4)cc3)c(=O)c2cc1Cl |  | 7.74 nM | 1.59 nM | 0.21 |  |  | > 20400 nM |  |  | > 12800 |  |  |  | 4.4 |  | 2.15 h
17 | COc1cc2[nH]c(C)c(-c3ccc(OCc4ccccc4)c(F)c3)c(=O)c2cc1Cl |  | 73.4 nM | 10.8 nM | 0.15 |  |  | > 23600 nM |  |  | > 2180 |  |  |  | 3.8 | < 2 µM | 0.383 h
18 | CCCSc1ccc2nc(NC(=O)OC)[nH]c2c1 [ALBENDAZOLE] |  |  |  |  |  |  |  |  |  |  |  |  |  |  | 6.1 µM (≈ 1.62 µg/mL) | 
19 | C[C@H]1[C@H](OC(=O)CCC(=O)O)O[C@@H]2O[C@@]3(C)CC[C@H]4[C@H](C)CC[C@@H]1[C@@]24OO3 [ARTESUNATE] |  |  |  |  |  | 97% |  |  |  |  | 81% |  |  |  |  | 
20 | O=C1C(O)=C([C@H]2CC[C@H](c3ccc(Cl)cc3)CC2)C(=O)c2ccccc21 [ATOVAQUONE] |  |  | 18400 nM |  |  |  |  |  |  |  |  | 0% |  |  |  | 
